{"source": "patent US9517244B2", "about": "“Therapeutic combinations for use in neoplasia” (University of Florida Research Foundation, Inc., priority 2011, dated 2016)", "experiment_in_all_cases": "MTT assay, pancreatic cancer cell line", "type_in_all_cases": "cell-based, human", "settings_in_all_cases": "72 h", "key": {"BxPC3": {"test_system": "BxPC3"}, "Mia-PaCa2": {"test_system": "Mia-PaCa2"}, "AsPC1": {"test_system": "AsPC1"}, "HPAC": {"test_system": "HPAC"}, "PANC1": {"test_system": "PANC1"}}, "note": "Read-outs that look alike come from different tables or passages of the source."}
{"molecule": "Nc1ccn([C@@H]2O[C@H](CO)[C@@H](O)C2(F)F)c(=O)n1", "note": "[dFdC, gemcitabine]", "values": [{"measurement": "IC50", "setting": "BxPC3; Homo sapiens, BXPC-3, BxPC3 (dFdC-sensitive), single agent, read-out: IC50", "value": "70 ± 5", "unit": "nM"}, {"measurement": "IC50", "setting": "Mia-PaCa2; Homo sapiens, MIA PaCa-2, Mia-PaCa2 (dFdC-resistant), single agent, read-out: IC50", "value": "11500 ± 2900", "unit": "nM"}, {"measurement": "IC50", "setting": "AsPC1; Homo sapiens, AsPC1 (dFdC-resistant), single agent, read-out: IC50", "value": "1830 ± 470", "unit": "nM"}, {"measurement": "IC50", "setting": "HPAC; Homo sapiens, HPAC (dFdC-sensitive), single agent, read-out: IC50", "value": "70 ± 7", "unit": "nM"}, {"measurement": "IC50", "setting": "PANC1; Homo sapiens, PANC-1, PANC1 (dFdC-resistant), single agent, read-out: IC50", "value": "11600 ± 2930", "unit": "nM"}]}
{"molecule": "[NH2][Pt]([NH2])([Cl])[Cl]", "note": "[CDDP, cisplatin]", "values": [{"measurement": "IC50", "setting": "BxPC3; BxPC3, NSC-30049 0 μM, 0.025 μM dFdC, read-out: IC50 of CDDP", "value": "2020 ± 350", "unit": "nM"}, {"measurement": "IC50", "setting": "BxPC3; BxPC3, NSC-30049 0 μM, no dFdC, read-out: IC50 of CDDP", "value": "1960 ± 80", "unit": "nM"}, {"measurement": "IC50", "setting": "BxPC3; BxPC3, NSC-30049 0.5 μM, 0.025 μM dFdC, read-out: IC50 of CDDP", "value": "940 ± 60", "unit": "nM"}, {"measurement": "IC50", "setting": "BxPC3; BxPC3, NSC-30049 0.5 μM, no dFdC, read-out: IC50 of CDDP", "value": "1530 ± 90", "unit": "nM"}, {"measurement": "IC50", "setting": "BxPC3; BxPC3, NSC-30049 1.0 μM, 0.025 μM dFdC, read-out: IC50 of CDDP", "value": "540 ± 60", "unit": "nM"}, {"measurement": "IC50", "setting": "BxPC3; BxPC3, NSC-30049 1.0 μM, no dFdC, read-out: IC50 of CDDP", "value": "1380 ± 40", "unit": "nM"}, {"measurement": "IC50", "setting": "BxPC3; BxPC3, NSC-30049 2.5 μM, 0.025 μM dFdC, read-out: IC50 of CDDP", "value": "40 ± 1", "unit": "nM"}, {"measurement": "IC50", "setting": "BxPC3; BxPC3, NSC-30049 2.5 μM, no dFdC, read-out: IC50 of CDDP", "value": "260 ± 70", "unit": "nM"}, {"measurement": "IC50", "setting": "Mia-PaCa2; Mia-PaCa2, NSC-30049 0 μM, 1 μM dFdC, read-out: IC50 of CDDP", "value": "22200 ± 1150", "unit": "nM"}, {"measurement": "IC50", "setting": "Mia-PaCa2; Mia-PaCa2, NSC-30049 0 μM, no dFdC, read-out: IC50 of CDDP", "value": "22300 ± 1100", "unit": "nM"}, {"measurement": "IC50", "setting": "Mia-PaCa2; Mia-PaCa2, NSC-30049 0.5 μM, 1 μM dFdC, read-out: IC50 of CDDP", "value": 90, "unit": "nM"}, {"measurement": "IC50", "setting": "Mia-PaCa2; Mia-PaCa2, NSC-30049 0.5 μM, no dFdC, read-out: IC50 of CDDP", "value": "14300 ± 490", "unit": "nM"}, {"measurement": "IC50", "setting": "Mia-PaCa2; Mia-PaCa2, NSC-30049 1.0 μM, 1 μM dFdC, read-out: IC50 of CDDP", "value": 70, "unit": "nM"}, {"measurement": "IC50", "setting": "Mia-PaCa2; Mia-PaCa2, NSC-30049 1.0 μM, no dFdC, read-out: IC50 of CDDP", "value": "13400 ± 1330", "unit": "nM"}, {"measurement": "IC50", "setting": "Mia-PaCa2; Mia-PaCa2, NSC-30049 2.5 μM, 1 μM dFdC, read-out: IC50 of CDDP", "value": 70, "unit": "nM"}, {"measurement": "IC50", "setting": "Mia-PaCa2; Mia-PaCa2, NSC-30049 2.5 μM, no dFdC, read-out: IC50 of CDDP", "value": "12200 ± 1120", "unit": "nM"}, {"measurement": "IC50", "setting": "AsPC1; AsPC1, NSC-30049 0 μM, 1 μM dFdC, read-out: IC50 of CDDP", "value": "3190 ± 280", "unit": "nM"}, {"measurement": "IC50", "setting": "AsPC1; AsPC1, NSC-30049 0 μM, no dFdC, read-out: IC50 of CDDP", "value": "3490 ± 130", "unit": "nM"}, {"measurement": "IC50", "setting": "AsPC1; AsPC1, NSC-30049 0.5 μM, 1 μM dFdC, read-out: IC50 of CDDP", "value": "640 ± 80", "unit": "nM"}, {"measurement": "IC50", "setting": "AsPC1; AsPC1, NSC-30049 0.5 μM, no dFdC, read-out: IC50 of CDDP", "value": "2200 ± 220", "unit": "nM"}, {"measurement": "IC50", "setting": "AsPC1; AsPC1, NSC-30049 1.0 μM, 1 μM dFdC, read-out: IC50 of CDDP", "value": "110 ± 90", "unit": "nM"}, {"measurement": "IC50", "setting": "AsPC1; AsPC1, NSC-30049 1.0 μM, no dFdC, read-out: IC50 of CDDP", "value": "2090 ± 190", "unit": "nM"}, {"measurement": "IC50", "setting": "AsPC1; AsPC1, NSC-30049 2.5 μM, 1 μM dFdC, read-out: IC50 of CDDP", "value": "4 ± 0.1", "unit": "nM"}, {"measurement": "IC50", "setting": "AsPC1; AsPC1, NSC-30049 2.5 μM, no dFdC, read-out: IC50 of CDDP", "value": "200 ± 10", "unit": "nM"}, {"measurement": "IC50", "setting": "HPAC; HPAC, NSC-30049 0 μM, 0.025 μM dFdC, read-out: IC50 of CDDP", "value": "13800 ± 5510", "unit": "nM"}, {"measurement": "IC50", "setting": "HPAC; HPAC, NSC-30049 0 μM, no dFdC, read-out: IC50 of CDDP", "value": "14100 ± 4340", "unit": "nM"}, {"measurement": "IC50", "setting": "HPAC; HPAC, NSC-30049 0.5 μM, 0.025 μM dFdC, read-out: IC50 of CDDP", "value": "20 ± 10", "unit": "nM"}, {"measurement": "IC50", "setting": "HPAC; HPAC, NSC-30049 0.5 μM, no dFdC, read-out: IC50 of CDDP", "value": "14500 ± 2470", "unit": "nM"}, {"measurement": "IC50", "setting": "HPAC; HPAC, NSC-30049 1.0 μM, 0.025 μM dFdC, read-out: IC50 of CDDP", "value": "10 ± 1", "unit": "nM"}, {"measurement": "IC50", "setting": "HPAC; HPAC, NSC-30049 1.0 μM, no dFdC, read-out: IC50 of CDDP", "value": "11600 ± 1820", "unit": "nM"}, {"measurement": "IC50", "setting": "HPAC; HPAC, NSC-30049 2.5 μM, 0.025 μM dFdC, read-out: IC50 of CDDP", "value": "10 ± 1", "unit": "nM"}, {"measurement": "IC50", "setting": "HPAC; HPAC, NSC-30049 2.5 μM, no dFdC, read-out: IC50 of CDDP", "value": "4710 ± 1240", "unit": "nM"}, {"measurement": "IC50", "setting": "PANC1; PANC1, NSC-30049 0 μM, 1 μM dFdC, read-out: IC50 of CDDP", "value": "9870 ± 800", "unit": "nM"}, {"measurement": "IC50", "setting": "PANC1; PANC1, NSC-30049 0 μM, no dFdC, read-out: IC50 of CDDP", "value": "9550 ± 940", "unit": "nM"}, {"measurement": "IC50", "setting": "PANC1; PANC1, NSC-30049 0.5 μM, 1 μM dFdC, read-out: IC50 of CDDP", "value": "1060 ± 390", "unit": "nM"}, {"measurement": "IC50", "setting": "PANC1; PANC1, NSC-30049 0.5 μM, no dFdC, read-out: IC50 of CDDP", "value": "9000 ± 30", "unit": "nM"}, {"measurement": "IC50", "setting": "PANC1; PANC1, NSC-30049 1.0 μM, 1 μM dFdC, read-out: IC50 of CDDP", "value": "1030 ± 360", "unit": "nM"}, {"measurement": "IC50", "setting": "PANC1; PANC1, NSC-30049 1.0 μM, no dFdC, read-out: IC50 of CDDP", "value": "7800 ± 500", "unit": "nM"}, {"measurement": "IC50", "setting": "PANC1; PANC1, NSC-30049 2.5 μM, 1 μM dFdC, read-out: IC50 of CDDP", "value": "120 ± 90", "unit": "nM"}, {"measurement": "IC50", "setting": "PANC1; PANC1, NSC-30049 2.5 μM, no dFdC, read-out: IC50 of CDDP", "value": "2040 ± 410", "unit": "nM"}]}
